Test results as given in US12319721B2 (Purdue Research Foundation, priority 2018, dated 2025).
Where no end group is shown, it is not given here. [ ]: non-standard residue; d: D form. mp4 = 4 mini PEG linker

Columns and labels:
[1] = tested on: healed fractured femur; assay: Femur fracture model, postmortem four-point bend of the healed femur; type: in vivo, Swiss Webster mice; conditions: 16 days, 0.1, 1 and 10 nmol daily subcutaneous, n=5
[2] = tested on: healed fractured femur; assay: Femur fracture model, postmortem four-point bend of the healed femur, CD-1 mice; type: in vivo, CD-1 male mice; conditions: 4 weeks, 50 nmol daily subcutaneous (50×), n=10
Description: (§1) The targeted conjugates were synthesized using standard Fmoc solid-phase peptide synthesis, as described above. To ensure the conjugates' activity, mouse pre osteo-blast (MCTC3-1) cells were treated with the targeted and untargeted compounds for three days at concentrations from 1 pM to 100 nM. After three days of treatment, the cells were harvested, and the ribonucleic acid (RNA) was purified from the cells. Expression levels of ALP, RUNx2, OSX, osteo-pontin (OPN), collagen 1A (Col-1A), OPG, RANKL, scle-rostin gene (SOST), and OC were quantified via quantitative reverse transcription polymerase chain reaction (RT-qPCR). Once the biological activity of the conjugates was confirmed, they were tested in vivo in a fracture model. Aseptic surgical techniques were used to place a 23-gage needle as in intramedullary nail in the femur of anesthetized, 12-week-old Swiss Webster mice for internal fixation before fracture. Femur fractures were induced using a drop weight fracture device from RISystem. The mice received buprenorphine for three days post fracture. The mice were dosed subcutaneously each day for two weeks, three weeks, 4 weeks, or 17 days. Fracture healing was assessed using microCT (Scanco Medical Ag). Morphometric parameters were quantified in the 100 widest slices of the fracture callus. Trabecular thickness (TbTh), trabecular spacing (TbSp), total volume (TV), and volume of calcified callus (BV) were calculated. Fractured femurs were tested for strength in a four-point bend to failure using an Electro Force TestBench (TA Instruments). Lower supports were 10 mm apart on the anterior face of the femur in contact with the proximal and distal diaphysis. Upper supports were 4 mm apart and spanned the entire fracture callus on the diaphysis. Force was applied from the posterior face of the femur with a displacement rate of 0.3 mm/sec. Peak load, yield load, stiffness, displacement post yield, work to fracture, and deformation data were generated. […]

[3] = tested on: fracture callus of fractured femur; assay: Femur fracture model, microCT of the fracture callus, CD-1 mice; type: in vivo, CD-1 male mice; conditions: 4 weeks, 50 nmol daily subcutaneous (50×), n=10
Description: as §1, with “The mice were dosed subcutaneously each day for two weeks, three weeks, 4 weeks, or 17 days.” left out, “calculated.” for “calculated. Fractured femurs were tested for strength in a four-point bend to failure using an Electro Force TestBench (TA Instruments). Lower supports were 10 mm apart on the anterior face of the femur in contact with the proximal and distal diaphysis. Upper supports were 4 mm apart and spanned the entire fracture callus on the diaphysis. Force was applied from the posterior face of the femur with a displacement rate of 0.3 mm/sec. Peak load, yield load, stiffness, displacement post yield, work to fracture, and deformation data were generated.”

[4] = tested on: healed fractured femur; assay: Femur fracture model, postmortem four-point bend of the healed femur; type: in vivo, Swiss Webster mice
Excerpt: All in vivo data included herein are from Swiss Webster mice. All mice received an osteotomy on their right femur and received subcutaneous drug administration daily for either 2, 3 or 4 weeks, as indicated, for each compound. 1×concentration represents 1 nmol/day, 10× represents 10 nmol/day, 100×represents 100 nmol/day and most studies have an n of 5.
The term “Peak Load” means a postmortem 4 point bend of the healed femur. Peak load represents the maximum force the healed femur withstood before it refractured.
(§2) The targeted conjugates were synthesized using standard Fmoc solid-phase peptide synthesis, as described above. To ensure the conjugates' activity, mouse pre osteo-blast (MCTC3-1) cells were treated with the targeted and untargeted compounds for three days at concentrations from 1 pM to 100 nM. After three days of treatment, the cells were harvested, and the ribonucleic acid (RNA) was purified from the cells. Expression levels of ALP, RUNx2, OSX, osteo-pontin (OPN), collagen 1A (Col-1A), OPG, RANKL, scle-rostin gene (SOST), and OC were quantified via quantitative reverse transcription polymerase chain reaction (RT-qPCR). Once the biological activity of the conjugates was confirmed, they were tested in vivo in a fracture model. Aseptic surgical techniques were used to place a 23-gage needle as in intramedullary nail in the femur of anesthetized, 12-week-old Swiss Webster mice for internal fixation before fracture. Femur fractures were induced using a drop weight fracture device from RISystem. The mice received buprenorphine for three days post fracture. The mice were dosed subcutaneously each day for two weeks, three weeks, 4 weeks, or 17 days. Fracture healing was assessed using microCT (Scanco Medical Ag). Morphometric parameters were quantified in the 100 widest slices of the fracture callus. Trabecular thickness (TbTh), trabecular spacing (TbSp), total volume (TV), and volume of calcified callus (BV) were calculated. Fractured femurs were tested for strength in a four-point bend to failure using an Electro Force TestBench (TA Instruments). Lower supports were 10 mm apart on the anterior face of the femur in contact with the proximal and distal diaphysis. Upper supports were 4 mm apart and spanned the entire fracture callus on the diaphysis. Force was applied from the posterior face of the femur with a displacement rate of 0.3 mm/sec. Peak load, yield load, stiffness, displacement post yield, work to fracture, and deformation data were generated. Statistical analysis was performed using a two-way analysis of variance (ANOVA) and a Tukey post-hoc analysis with significance reported at the 95% confidence level. All animal experiments were performed in accordance with protocols approved by Purdue University's Institutional Animal Care and Use Committee (IACUC).

[5] = tested on: fracture callus of fractured femur; assay: Femur fracture model, microCT of the fracture callus (BV/TV, BV, TbTh, TbSp); type: in vivo, Swiss Webster mice
Excerpt: All in vivo data included herein are from Swiss Webster mice. […] 1×concentration represents 1 nmol/day, 10× represents 10 nmol/day, 100×represents 100 nmol/day and most studies have an n of 5.
The term “BV/TV” means the bone volume divided by total volume of the 100 thickest micro CT slices of the fracture callus.
The term “TbTh” means the trabecular thickness of the 100 thickest micro CT slices of the fracture callus.
The term “[…]” means the overall bone volume of the 100 thickest micro CT slices of the fracture callus.
The term “TbSp” means the spacing between the trabecula in the 100 thickest micro CT slices of the fracture callus.
as §2, with “The mice were dosed subcutaneously each day for two weeks, three weeks, 4 weeks, or 17 days.” left out

[6] = 17 days, 1, 10 and 100 nmol daily subcutaneous, n=5

“Annexin_mp4_(D)E10: Annexin 1 N-terminal fragment with 10 glutamic acids, SEQ ID NO: 26, FIG. 81 (Ac-AMVSEFLKQAWFIENEEQEYVQTVY-{mini PEG-mini PEG-mini PEG-mini PEG-dE-dE-dE-dE-dE-dE-dE-dE-dE-dE})” was tested, and the “Max load (bone strength)” value [1] was “raises bone strength” and the “Work to fracture (bone strength)” value [1] was “raises bone strength”.

For “Preptin(1-34)_mp4_(D)E10: Preptin (1-34) with mp4 linker and 10 glutamic acids, SEQ ID NO: 24, FIG. 70 ({dE-dE-dE-dE-dE-dE-dE-dE-dE-dE-mp4}-VRGASQRWTDYQFFGVPYRPFDPLVAQSTSVD)”, the “Max load (bone strength)” value [2] was “significantly raises bone strength”, the “Post yield displacement (bone brittleness)” value [2] was “significantly reduces the bone brittleness” and the “Work to fracture (bone strength)” value [2] was “significantly raises bone strength”. The “BV (bone volume, bone mineralization)” value [3] was “significantly raises bone mineralization” and the “BV/TV (bone density)” value [3] was “significantly raises bone density”.

With “QK_mp4_(D)E10: VEGF mimetic 15 amino acid peptide QK attached by mini-peg spacer to 10 glutamic acids, SEQ ID NO: 25 ({dE-dE-dE-dE-dE-dE-dE-dE-dE-dE-mp4}-KLTWQELYQLKYKGI)” the “Max load (bone strength)” value [4, 6] was “raises bone strength”, the “Work to fracture (bone strength)” value [4, 6] was “raises bone strength” and the “BV (bone volume, bone mineralization)” value [5, 6] was “raises bone mineralization”. The “BV/TV (bone density)” value [5, 6] was “raises bone density”.

With “substance P D10: substance P with 4 mini PEG linker and conjugated with 10 aspartate acids, SEQ ID NO: 4/43, FIG. 32 (chain 1 {Asp-Asp-Asp-Asp-Asp-Asp-Asp-Asp-Asp-Asp-mp4}-RPKPQQFFGLM; chain 2 DDDDDDDDDD[mp4]RPKPQQFFGLM; ends and bridges not checked)” the “peak load (max load) of healed femur” value ([4]; 4 weeks, 10× (10 nmol/day)) was 30-35 Newtons and the BV/TV ([5]; 4 weeks, various concentrations (1, 10 and in part 100 nmol/day), subcutaneous daily) was “dose dependent manner”.
